From PubChem BioAssay AID493145 (Sanford-Burnham Center for Chemical Genomics, 2011) come the findings set out here.

“And” between values parts separate entries of the source, which are not always exact repeats. Identical values can stand only once. The source made the active and inactive calls. The rule behind the calls is not given here.

One may read the EC50 as the concentration that produces a half-maximal response.

The target in the assay is Intestinal-type alkaline phosphatase (Homo sapiens) (UniProt P09923). The assay is described as follows: activation of human intestinal phosphatase enzyme – biochemical, human enzyme for mouse series, mouse IAP activator project, SAR follow-up (AID 493145). The conditions noted are these: purified human intestinal alkaline phosphatase, enzymatic activity.
Chain of Intestinal-type alkaline phosphatase (Homo sapiens) (P09923 whole entry, looked up): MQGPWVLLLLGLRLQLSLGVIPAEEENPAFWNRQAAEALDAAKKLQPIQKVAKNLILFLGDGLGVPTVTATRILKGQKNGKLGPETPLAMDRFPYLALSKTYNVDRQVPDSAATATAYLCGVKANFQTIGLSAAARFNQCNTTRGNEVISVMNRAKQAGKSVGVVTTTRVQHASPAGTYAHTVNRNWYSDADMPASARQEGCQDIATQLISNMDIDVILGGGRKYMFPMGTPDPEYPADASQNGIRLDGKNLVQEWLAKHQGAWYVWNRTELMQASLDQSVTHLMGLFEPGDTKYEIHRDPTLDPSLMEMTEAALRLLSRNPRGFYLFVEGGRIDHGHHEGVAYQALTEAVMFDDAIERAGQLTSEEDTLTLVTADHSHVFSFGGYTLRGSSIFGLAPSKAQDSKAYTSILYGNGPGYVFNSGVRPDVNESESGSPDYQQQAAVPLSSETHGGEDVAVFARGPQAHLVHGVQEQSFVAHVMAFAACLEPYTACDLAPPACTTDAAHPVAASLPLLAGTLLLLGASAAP
On to `N#Cc1c(SCC(=O)Nc2ccc(Cl)cc2Cl)sc2c(O)cc(=O)[nH]c12`, for which the EC50 was > 100 µM (inactive).

On to `CCCSc1nnc(NC(=O)CSc2sc3c(O)cc(=O)[nH]c3c2C#N)s1`, for which the EC50 is > 100 µM (inactive). Regarding `CN1CCC(=NNC(=O)c2cc(O)c(O)c(O)c2)CC1`, the EC50 is > 100 µM (inactive) and 64 µM. Take `O=C(CCN1C(=O)/C(=C\c2ccco2)SC1=S)Nc1ccc(C(=O)O)c(O)c1`: the EC50 was > 100 µM (inactive). The value for `CCN(C(=O)C(C)N1C(=O)/C(=C/c2ccco2)SC1=S)C1CCS(=O)(=O)C1` (stereo not drawn) was 82.9 µM; that for `FC(F)(F)c1cccc(NC(=S)NCCC(c2ccccc2)c2ccccc2)c1` was 66.4 µM.

`COc1ccc(CNC(=O)CSc2sc3c(O)cc(=O)[nH]c3c2C#N)cc1OC`: the EC50 was > 100 µM (inactive). The value for `Cc1ccc(NC(=O)CCNS(=O)(=O)c2ccc3[nH]c(=O)oc3c2)c(C)c1` was > 100 µM (inactive). With `O=C(CN1C(=O)/C(=C/c2ccco2)SC1=S)Nc1ccc(O)c(C(=O)O)c1`, the EC50 is > 100 µM (inactive). Next, `O=C(CCCN1C(=O)/C(=C/c2ccco2)SC1=S)Nc1ccccc1`: > 100 µM (inactive); `CC(C(=O)Nc1ccccc1C(=O)O)N1C(=O)/C(=C\c2ccco2)SC1=S` (stereo not drawn): > 100 µM (inactive). Next, `CCOc1ccc2nc(NC(=O)CN(C)S(=O)(=O)c3ccc4[nH]c(=O)oc4c3)sc2c1`: > 100 µM (inactive); `COc1ccc(NC(=S)NCCC(c2ccccc2)c2ccccc2)cc1`: 52.3 µM. The value for `Cc1cc(=O)oc2cc(NC(=S)NCCC(c3ccccc3)c3ccccc3)ccc12` was > 100 µM (inactive); that for `O=C(C1CCN(S(=O)(=O)c2ccc3[nH]c(=O)oc3c2)CC1)N1CC=C(c2ccccc2)CC1` was > 100 µM (inactive); that for `CSc1cccc(NC(=O)CCNS(=O)(=O)c2ccc3[nH]c(=O)oc3c2)c1` was > 100 µM (inactive).

Turning to `O=C(N/N=C/c1ccc(F)cc1)c1cc(O)c(O)c(O)c1`, the EC50 is > 100 µM (inactive). The value for `Cc1csc(NC(=O)CSc2sc3c(O)cc(=O)[nH]c3c2C#N)n1` was > 100 µM (inactive); that for `O=C(CN1C(=O)/C(=C\c2ccco2)SC1=S)Nc1ccc(O)cc1C(=O)O` was > 100 µM (inactive). With `CCc1ccc(NC(=O)CN(C)S(=O)(=O)c2ccc3[nH]c(=O)oc3c2)cc1`, the EC50 was > 100 µM (inactive). Regarding `CC(C(=O)Nc1ccc(C(=O)O)cc1)N1C(=O)/C(=C\c2ccco2)SC1=S` (stereo not drawn), the EC50 is > 100 µM (inactive). With `Cc1ccc(Cl)cc1NC(=O)CSc1sc2c(O)cc(=O)[nH]c2c1C#N`, the EC50 is > 100 µM (inactive). Next, `COc1ccc(NC(=O)CCNS(=O)(=O)c2ccc3[nH]c(=O)oc3c2)cc1Cl`: > 100 µM (inactive). Next, `COc1ccc(OC)c(NC(=O)CCNS(=O)(=O)c2ccc3[nH]c(=O)oc3c2)c1`: > 100 µM (inactive). The value for `CCOc1cccc(NC(=O)CSc2sc3c(O)cc(=O)[nH]c3c2C#N)c1` was > 100 µM (inactive).

In the case of `O=C(CN1C(=O)/C(=C/c2ccco2)SC1=S)Nc1cccc(C(=O)O)c1`, the EC50 is > 100 µM (inactive). The value for `N#Cc1c(SCC(=O)Nc2nc3ccc(Br)cc3s2)sc2c(O)cc(=O)[nH]c12` was > 100 µM (inactive); that for `N#Cc1c(SCC(=O)Nc2ccccc2C(F)(F)F)sc2c(O)cc(=O)[nH]c12` was > 100 µM (inactive); that for `O=C(N/N=C/C1CC=CCC1)c1cc(O)c(O)c(O)c1` (stereo not drawn) was > 100 µM (inactive). For the compound `COc1ccccc1NC(=O)CCNS(=O)(=O)c1ccc2[nH]c(=O)oc2c1`, the EC50 is > 100 µM (inactive). The value for `N#Cc1c(SCC(=O)Nc2nc3ccccc3s2)sc2c(O)cc(=O)[nH]c12` was > 100 µM (inactive).

Consider `O=C(CCNS(=O)(=O)c1ccc2[nH]c(=O)oc2c1)Nc1ccccc1`, for which the EC50 is > 100 µM (inactive).

Consider `O=C(NN=Cc1cccnc1)c1cc(O)c(O)c(O)c1`, for which the EC50 was > 100 µM (inactive).
